The text below walks through data of patent publication US20090004207A1, “Methods and Compositions for Inhibiting Pathological Angiogenesis in the Eye” (priority 2007, published 2009).

In experiment [1] the test system is human COX-2 promoter (phPES2). The experiment is described as follows: Human COX-2 promoter (phPES2) luciferase reporter activity in EOMA cells. In kind it is cell-based. The settings on record: mouse hemangioendothelioma cells (EOMA); 100 nM for 5 hours. On the procedure: Cells transfected with phPES2(−1432/+59) luciferase reporter were treated with PMA (100 nM, positive control). Results from one representative experiment is shown (*P<0.01, […], n=4).
EOMA cultures (3×10^5 cells/well) on 6-well plate were grown one day before the transfection. To measure transfection efficiency, cells were co-transfected with pCMV-βgal. For each well, 0.3 μg of the luciferase reporter vector phPES2(−1432/+59), 0.3 μg of the gene of interest (pcDNA3.1-S1p2 or pcDNA3.1-S1p1) and 25 ng of pCMV-βgal mixed with Lipofectin 2000 (Invitrogen) were introduced into the cells as described by the manufacturer. 24 hours after transfection, cells were treated with PMA (100 nm) for 5 hours, if necessary. Cells were harvested and luciferase and β-galactosidase activity were determined with Luciferase assay system (Promega) and Western-light and western-star system (Applied Biosystems) respectively. The amount of plasmid DNA was made constant by adding pcDNA 3.1 and luciferase activity was normalized to μg of protein content.
In addition, it was tested if S1P2 receptor can induce the transcription of the COX-2 gene. For this experiment, the human COX-2 promoter (phPES2) driven reporter activity was measured in transfected endothelial cells. […]

Experiment [2] deals with Bovine retinal endothelial cells. The experiment is described as follows: Boyden chamber cell migration assay, S1P-stimulated. The settings on record: 1 μM, S1P 100 nM. In kind it is cell-based. Here is the method:
Bovine retinal endothelial cells were tested to see if JTE013, a specific S1P2 receptor antagonist, would influence normal endothelial cell functions, such as cell migration stimulated by S1P. […] In contrast, VPC44116, a specific inhibitor of S1P1 receptor blocked normal endothelial cell migration stimulated by S1P in these cells.

On to `CCCCCCCCCCCCCC(=O)O[C@@H]1[C@@H](C)[C@@]2(O)[C@@H](C=C(CO)C[C@]3(O)C(=O)C(C)=C[C@@H]23)[C@@H]2C(C)(C)[C@]12OC(C)=O` [PMA], for which the “induction of phPES2 (−1432/+59) promoter activity” value in experiment [1] was determined as 1.83 fold. For `CCCCCCCCc1cccc(NC(=O)[C@H](N)CCP(=O)(O)O)c1` [VPC44116], the “endothelial cell migration stimulated by S1P” value in experiment [2] is “blocked”.
